The values below come from PubChem BioAssay (NCI).

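Cells were grown in 96-well plates and exposed to each compound for 48 hours at five concentrations; endpoints were interpolated linearly between bracketing concentrations, or set to the highest concentration if not reached. GI50: concentration for 50% inhibition of growth. TGI marks complete inhibition of growth.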

Some test systems named below: ACHN renal; CAKI-1 renal; HCT-116 colon; HS 578T breast; KM12 colon; NCI-H23 lung; NCI-H522 lung; NCI/ADR-RES ovarian; SN12C renal; EKVX NSCLC.
Assay in all cases: NCI-60 cell line screen, 48 h

With `CS(=O)(=O)CCc1cccc(C(=O)c2cnn(-c3ccc(F)cc3)c2N)c1`, the GI50 with ACHN renal, with CAKI-1 renal, with HCT-116 colon, with HS 578T breast, in the assay with KM12 colon and with NCI-H23 lung was above 25 µM in each case. In addition, the GI50 in the assay with NCI-H522 lung, in the assay on NCI/ADR-RES ovarian and in the assay with SN12C renal was above 25 µM throughout. In addition, the TGI in the assay on ACHN renal, in the assay with CAKI-1 renal, in the assay on HCT-116 colon, in the assay on HS 578T breast, with KM12 colon and with NCI-H23 lung was above 25 µM in each case. Moreover, the TGI in the assay on NCI-H522 lung, in the assay with NCI/ADR-RES ovarian and in the assay on SN12C renal was above 25 µM in each case.

For `Cc1cc(Cc2cc(C)c(NC(=O)C(=O)C3CCC4=C(SC5C=CC=CC5N4)C3=O)c(C(C)C)c2)cc(C(C)C)c1NC(=O)C(=O)C1CCC2=C(SC3C=CC=CC3N2)C1=O` (stereo not given), the TGI with ACHN renal, with CAKI-1 renal, in the assay with EKVX NSCLC, with HCT-116 colon, in the assay on KM12 colon and in the assay on NCI-H23 lung was above 100 µM each time. The values for the TGI in the assay on NCI-H522 lung, with NCI/ADR-RES ovarian and in the assay on SN12C renal were 67.2 µM, above 100 µM and above 100 µM, respectively.

With `CC1CCCC(C(O)CC2CC(=O)NC(=O)C2)C1O` (stereo not given), the TGI with ACHN renal, in the assay with CAKI-1 renal, in the assay with EKVX NSCLC, with HCT-116 colon, in the assay on HS 578T breast and in the assay with KM12 colon was above 100 µM each time. In addition, the TGI in the assay on NCI-H23 lung, with NCI/ADR-RES ovarian and with SN12C renal was above 100 µM in each case.

Regarding `c1ccc(CN2COc3c(ccc4c3OCN(Cc3ccccc3)C4)C2)cc1`, the GI50 was 0.316 µM in the assay with ACHN renal; 0.22 µM in the assay with CAKI-1 renal; 0.535 µM in the assay with HCT-116 colon; 1.91 µM in the assay on HS 578T breast; 0.621 µM with KM12 colon; 3.68 µM in the assay on NCI-H23 lung. In addition, the figures for the GI50 with NCI-H522 lung, with NCI/ADR-RES ovarian and with SN12C renal were 2.05 µM, 0.256 µM and 0.559 µM, respectively. Also, the TGI in the assay with ACHN renal, in the assay with HCT-116 colon, in the assay on HS 578T breast, with KM12 colon, in the assay with NCI-H23 lung and in the assay with NCI-H522 lung was above 100 µM in each case. The TGI in the assay with NCI/ADR-RES ovarian and in the assay on SN12C renal was above 100 µM in each case.

In the case of `CO/N=C(\C)c1ccc(Nc2cc(-c3ccccc3)nc3ccc(OC)cc23)cc1`, the GI50 is 3.27 µM in the assay on ACHN renal; 2.05 µM in the assay on CAKI-1 renal; 3.27 µM in the assay on EKVX NSCLC; 1.76 µM in the assay with HCT-116 colon; 3.5 µM in the assay on HS 578T breast; 2.52 µM in the assay with NCI-H23 lung. Also, the figures for the GI50 in the assay on NCI-H522 lung, with NCI/ADR-RES ovarian and with SN12C renal were 4.4 µM, 2.61 µM and 1.7 µM, respectively. Further, the TGI in the assay with ACHN renal was found to be 12.5 µM; with CAKI-1 renal, 5.16 µM; with EKVX NSCLC it was 8.53 µM; in the assay with HCT-116 colon, 3.77 µM; with HS 578T breast, 9.44 µM; in the assay on NCI-H23 lung it was 10.3 µM. For the same compound, the values for the TGI with NCI-H522 lung, in the assay on NCI/ADR-RES ovarian and in the assay on SN12C renal were above 100 µM, 11.2 µM and 4.11 µM, respectively.

Take `COc1ccc(C2SCC(=O)N2NC(=O)c2ccc(NC(C)=O)cc2)c(OC)c1` (stereo not given): the TGI with ACHN renal, in the assay with EKVX NSCLC, in the assay on HCT-116 colon, with HS 578T breast, with KM12 colon and with NCI-H23 lung was above 100 µM each time. Moreover, the TGI in the assay with NCI/ADR-RES ovarian and with SN12C renal was above 100 µM throughout.

As for `O=C(Nc1ccc(Cl)c(Cl)c1)Nc1c(Oc2ccc(Cl)c(Cl)c2)ccc(Cl)c1S(=O)(=O)O`, the GI50 was 1.32 µM in the assay on HCT-116 colon; 2.21 µM with HS 578T breast; 0.927 µM in the assay on KM12 colon; 2.52 µM in the assay on NCI-H23 lung; 0.959 µM in the assay on NCI/ADR-RES ovarian; 4.48 µM in the assay with SN12C renal. Besides, the TGI was above 100 µM with HCT-116 colon; 8.79 µM with HS 578T breast; above 100 µM in the assay on KM12 colon; above 100 µM with NCI-H23 lung; above 100 µM in the assay on NCI/ADR-RES ovarian; above 100 µM in the assay on SN12C renal.

As for `Cn1c2c(c3ccc([N+](=O)[O-])cc3c1=O)C(=O)c1ccccc1-2`, the GI50 in the assay on ACHN renal was above 100 µM; in the assay on CAKI-1 renal, 80.5 µM; in the assay with EKVX NSCLC it was above 100 µM; in the assay on HCT-116 colon, above 100 µM; in the assay on HS 578T breast, above 100 µM; in the assay with KM12 colon, above 100 µM. Also, the GI50 in the assay with NCI-H522 lung, in the assay on NCI/ADR-RES ovarian and in the assay with SN12C renal was above 100 µM each time. Further, the TGI in the assay on ACHN renal, with CAKI-1 renal, in the assay with EKVX NSCLC, in the assay on HCT-116 colon, in the assay on HS 578T breast and in the assay with KM12 colon was above 100 µM throughout. The TGI in the assay on NCI-H522 lung, with NCI/ADR-RES ovarian and with SN12C renal was above 100 µM in each case.

Turning to `Cc1cc(N2CCOCC2)nc(N[C@@H]2CCC[C@H](Nc3ccnc4cc(Cl)ccc34)C2)n1`, the GI50 with ACHN renal is 1.89 µM; in the assay with EKVX NSCLC, 2.86 µM; in the assay with HCT-116 colon it was 1.98 µM; in the assay with HS 578T breast, 1.84 µM; in the assay with KM12 colon, 3.06 µM; in the assay with NCI-H23 lung, 5.97 µM. Further, the GI50 is 2.97 µM in the assay with NCI-H522 lung, 2.59 µM with NCI/ADR-RES ovarian and 2.48 µM in the assay on SN12C renal. In addition, the TGI came out at 3.91 µM with ACHN renal; 13.2 µM in the assay with EKVX NSCLC; 4.26 µM in the assay on HCT-116 colon; 5.14 µM in the assay with HS 578T breast; 10.8 µM in the assay on KM12 colon; 21.2 µM in the assay on NCI-H23 lung. Further, the TGI in the assay with NCI-H522 lung was determined as 6.23 µM; with NCI/ADR-RES ovarian, 8 µM; with SN12C renal, 8.68 µM.

Regarding `COCc1cc(C(=O)Nc2cc([C@H]3CC[C@@H](OC(=O)NC(C)C)C3)[nH]n2)n(C)n1`, the GI50 is 11.1 µM with ACHN renal; 3.64 µM in the assay with CAKI-1 renal; 19.1 µM in the assay with EKVX NSCLC; 2.61 µM in the assay with HCT-116 colon; 11.7 µM with HS 578T breast; 1.27 µM in the assay on KM12 colon. Further, the GI50 is 16.2 µM in the assay with NCI-H522 lung, above 100 µM in the assay with NCI/ADR-RES ovarian and 9.58 µM in the assay with SN12C renal. Besides, the TGI is above 100 µM in the assay on ACHN renal; 95.3 µM with CAKI-1 renal; 85.8 µM in the assay with EKVX NSCLC; 43 µM with HCT-116 colon; 85.3 µM in the assay on HS 578T breast; 23.1 µM in the assay with KM12 colon. Further, the TGI with NCI-H522 lung was 47.2 µM; in the assay with NCI/ADR-RES ovarian, above 100 µM; in the assay with SN12C renal, above 100 µM.
